# Measurements reported in the supplement of paper PMC10627819.
# Experiments:
# [1] = tested on: B. subtilis 168; assay: Bliss interaction score (quartile over a dose matrix) (fitness difference); higher = more antagonism (negative = synergy)
# How it was run: (§1)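 Fitness here means normalised growth, inferred for single drugs from the combination data. Growth was OD595 at entry into stationary phase, divided by the plate's robust no-drug mean and capped at 1. The Bliss score is observed minus expected fitness, with the expectation being the product, and its quartiles span technical, biological and donor/recipient replicates.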
# [2] = tested on: S. aureus DSM 20231; assay: as above
# How it was run: as §1
# [3] = tested on: S. aureus Newman; assay: as above
# How it was run: as §1
# [4] = tested on: S. pneumoniae D39V; assay: as above
# How it was run: as §1
# [5] = tested on: B. subtilis 168; assay: fitness (endpoint OD595 vs no drug) (fraction); higher = more growth
# How it was run: (§2)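 Background-subtracted growth curves were the basis for fitness, taken as the optical density at entry into stationary phase over the robust mean of no-drug control wells. A cap of 1 was applied. The curves came from OD595 readings every 30 min for 14 h at 37 °C, in 384-well plates seeded at OD595 0.01 with 30 µl, or 55 µl for S. pneumoniae.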
# [6] = tested on: S. aureus Newman; assay: as above
# How it was run: as §2
# [7] = tested on: S. pneumoniae D39V; assay: as above
# How it was run: as §2
# 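For Bliss interaction score (quartile over a dose matrix) in this document: first quartile when negative (synergy) and third quartile when positive (antagonism).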
compound,measurement,setting,value
CC(=O)Oc1ccccc1C(=O)O [Acetylsalicylicacid] + CC[C@H](C)[C@H](N)C1=N[C@H](C(=O)N[C@@H](CC(C)C)C(=O)N[C@H](CCC(=O)O)C(=O)N[C@H](C(=O)N[C@H]2CCCCNC(=O)[C@H](CC(N)=O)NC(=O)[C@@H](CC(=O)O)NC(=O)[C@H](Cc3cnc[nH]3)NC(=O)[C@@H](Cc3ccccc3)NC(=O)[C@H]([C@@H](C)CC)NC(=O)[C@@H](CCCN)NC2=O)[C@@H](C)CC)CS1 [Bacitracin],Bliss interaction score,[1]; main component drawn,0.123
same,Bliss interaction score,[2]; main component drawn,0.0276
same,Bliss interaction score,[3]; main component drawn,-0.0752
same,Bliss interaction score,[4]; main component drawn,0.165
CC(=O)Oc1ccccc1C(=O)O [Acetylsalicylicacid] + CN1C2=CC=CC=C2N=C3C1=CC=CC3=O [Pyocyanin],Bliss interaction score,[1],-0.0887
same,Bliss interaction score,[2],-0.0748
same,Bliss interaction score,[3],-0.0562
same,Bliss interaction score,[4],-0.0649
CC(=O)Oc1ccccc1C(=O)O [Acetylsalicylicacid] + CN(C)C(=O)C(CCN1CCC(O)(c2ccc(Cl)cc2)CC1)(c1ccccc1)c1ccccc1 [Loperamide],Bliss interaction score,[1],0.0636
same,Bliss interaction score,[2],0.131
same,Bliss interaction score,[3],-0.0344
same,Bliss interaction score,[4],0.144
CC(=O)Oc1ccccc1C(=O)O [Acetylsalicylicacid] + CN(C)[C@@H]1C(O)=C(C(N)=O)C(=O)[C@@]2(O)C(O)=C3C(=O)c4c(O)ccc(Cl)c4[C@@](C)(O)[C@H]3C[C@@H]12 [Clortetracycline],Bliss interaction score,[1],-0.311
same,Bliss interaction score,[2],-0.101
same,Bliss interaction score,[3],-0.0574
same,Bliss interaction score,[4],-0.0497
CC(=O)Oc1ccccc1C(=O)O [Acetylsalicylicacid] + CN(C)c1cc(NC(=O)CNC(C)(C)C)c(O)c2c1C[C@H]1C[C@H]3[C@H](N(C)C)C(O)=C(C(N)=O)C(=O)[C@@]3(O)C(O)=C1C2=O [Tigecycline],Bliss interaction score,[1],-0.11
same,Bliss interaction score,[2],-0.088
same,Bliss interaction score,[3],-0.0593
same,Bliss interaction score,[4],-0.0515
CC(=O)Oc1ccccc1C(=O)O [Acetylsalicylicacid] + CN(N=O)C(=O)N[C@@H](C=O)[C@@H](O)[C@H](O)[C@H](O)CO [Streptozotocin],Bliss interaction score,[1],0.0788
same,Bliss interaction score,[2],-0.0369
same,Bliss interaction score,[3],0.0716
same,Bliss interaction score,[4],-0.0923
CO/N=C(\C(=O)N[C@@H]1C(=O)N2C(C(=O)O)=C(COC(N)=O)CS[C@H]12)c1ccco1 [Cefuroxime] + C/C(=C\C(=O)OCCCCCCCCC(=O)O)C[C@@H]1OC[C@H](C[C@@H]2O[C@H]2[C@@H](C)[C@H](C)O)[C@@H](O)[C@H]1O [Pseudomonic acid],Bliss interaction score,[1],0.074
same,Bliss interaction score,[4],0.0629
CO/N=C(\C(=O)N[C@@H]1C(=O)N2C(C(=O)O)=C(COC(N)=O)CS[C@H]12)c1ccco1 [Cefuroxime] + O=C(O)[C@H]1/C(=C/CO)O[C@@H]2CC(=O)N21 [Clavulanic],Bliss interaction score,[1],-0.0417
same,Bliss interaction score,[4],-0.0363
O=C(O)c1cn(C2CC2)c2cc(N3CCNCC3)c(F)cc2c1=O [Ciprofloxacin] + Cc1onc(-c2ccccc2)c1C(=O)N[C@@H]1C(=O)N2[C@@H]1SC(C)(C)[C@@H]2C(=O)O [Oxacillin],fitness,"[5]; first compound 0.0098 µg/mL, partner 0.002 µg/mL",0.894
same,fitness,"[5]; first compound 0.0098 µg/mL, partner 0.004 µg/mL",0.866
same,fitness,"[5]; first compound 0.0098 µg/mL, partner 0.0078 µg/mL, one replicate",0.976
same,fitness,"[5]; first compound 0.0098 µg/mL, partner 0.008 µg/mL",0.863
same,fitness,"[5]; first compound 0.0098 µg/mL, partner 0.0155 µg/mL, one replicate",0.905
same,fitness,"[5]; first compound 0.0098 µg/mL, partner 0.031 µg/mL, one replicate",0.965
same,fitness,"[5]; first compound 0.0098 µg/mL, partner 0.075 µg/mL, one replicate",0.375
same,fitness,"[5]; first compound 0.0195 µg/mL, partner 0.002 µg/mL",0.748
same,fitness,"[5]; first compound 0.0195 µg/mL, partner 0.004 µg/mL",0.693
same,fitness,"[5]; first compound 0.0195 µg/mL, partner 0.0078 µg/mL, one replicate",0.814
same,fitness,"[5]; first compound 0.0195 µg/mL, partner 0.008 µg/mL",0.61
same,fitness,"[5]; first compound 0.0195 µg/mL, partner 0.0155 µg/mL, one replicate",0.779
same,fitness,"[5]; first compound 0.0195 µg/mL, partner 0.031 µg/mL, one replicate",0.729
same,fitness,"[5]; first compound 0.0195 µg/mL, partner 0.075 µg/mL, one replicate",0.0252
same,fitness,"[5]; first compound 0.0195 µg/mL, partner 0.15 µg/mL, one replicate",0.0469
same,fitness,"[5]; first compound 0.0195 µg/mL, partner 0.3 µg/mL, one replicate",0.0517
same,fitness,"[5]; first compound 0.039 µg/mL, partner 0.002 µg/mL",0.0478
same,fitness,"[5]; first compound 0.039 µg/mL, partner 0.004 µg/mL",0.0457
same,fitness,"[5]; first compound 0.039 µg/mL, partner 0.0078 µg/mL, one replicate",0.136
same,fitness,"[5]; first compound 0.039 µg/mL, partner 0.008 µg/mL",0.054
same,fitness,"[5]; first compound 0.039 µg/mL, partner 0.0155 µg/mL, one replicate",0.191
same,fitness,"[5]; first compound 0.039 µg/mL, partner 0.031 µg/mL, one replicate",0.0978
same,fitness,"[5]; first compound 0.039 µg/mL, partner 0.075 µg/mL, one replicate",0.0437
same,fitness,"[5]; first compound 0.039 µg/mL, partner 0.15 µg/mL, one replicate",0.0478
same,fitness,"[5]; first compound 0.039 µg/mL, partner 0.3 µg/mL, one replicate",0.0488
same,fitness,"[6]; first compound 0.0375 µg/mL, partner 0.0156 µg/mL",0.622
same,fitness,"[6]; first compound 0.0375 µg/mL, partner 0.0312 µg/mL",0.612
same,fitness,"[6]; first compound 0.0375 µg/mL, partner 0.0625 µg/mL",0.573
same,fitness,"[6]; first compound 0.075 µg/mL, partner 0.0156 µg/mL",0.635
same,fitness,"[6]; first compound 0.075 µg/mL, partner 0.0312 µg/mL",0.618
same,fitness,"[6]; first compound 0.075 µg/mL, partner 0.0625 µg/mL",0.494
same,fitness,"[6]; first compound 0.15 µg/mL, partner 0.0156 µg/mL",0.0645
same,fitness,"[6]; first compound 0.15 µg/mL, partner 0.0312 µg/mL",0.0732
same,fitness,"[6]; first compound 0.15 µg/mL, partner 0.0625 µg/mL",0.0443
same,fitness,"[7]; first compound 0.125 µg/mL, partner 0.005 µg/mL",0.987
same,fitness,"[7]; first compound 0.125 µg/mL, partner 0.01 µg/mL",0.969
same,fitness,"[7]; first compound 0.125 µg/mL, partner 0.02 µg/mL",0.915
same,fitness,"[7]; first compound 0.125 µg/mL, partner 0.04 µg/mL",0.535
same,fitness,"[7]; first compound 0.25 µg/mL, partner 0.005 µg/mL, one replicate",0.989
same,fitness,"[7]; first compound 0.25 µg/mL, partner 0.01 µg/mL",0.934
same,fitness,"[7]; first compound 0.25 µg/mL, partner 0.02 µg/mL",0.844
same,fitness,"[7]; first compound 0.25 µg/mL, partner 0.04 µg/mL",0.424
same,fitness,"[7]; first compound 0.5 µg/mL, partner 0.005 µg/mL",0.815
same,fitness,"[7]; first compound 0.5 µg/mL, partner 0.04 µg/mL",0.354
same,Bliss interaction score,[1],-0.0871
same,Bliss interaction score,[2],0.0341
same,Bliss interaction score,[3],0.0816
C[C@H]1c2cccc(O)c2C(=O)C2=C(O)[C@]3(O)C(=O)C(C(N)=O)=C(O)[C@@H](N(C)C)[C@@H]3[C@@H](O)[C@@H]21 [Doxycycline] + CCCSc1nc(N[C@@H]2C[C@H]2c2ccc(F)c(F)c2)c2nnn([C@@H]3C[C@H](OCCO)[C@@H](O)[C@H]3O)c2n1 [Ticagrelor],Bliss interaction score,[2],-0.272
Cc1ncc([N+](=O)[O-])n1CCO [Metronidazole] + CCCSc1nc(N[C@@H]2C[C@H]2c2ccc(F)c(F)c2)c2nnn([C@@H]3C[C@H](OCCO)[C@@H](O)[C@H]3O)c2n1 [Ticagrelor],Bliss interaction score,[2],0.152
Cc1cc(C(C)(C)C)c(O)c(C)c1CC1=NCCN1 [Oxymetazoline] + COc1cc(Cc2cnc(N)nc2N)cc(OC)c1OC [Trimethoprim],Bliss interaction score,[2],0.209
